Biological target: ROCK2 (Homo sapiens, UniProt O75116)
Assay: ROCK2 kinase inhibition assay (Caliper LABCHIP, FITC peptide substrate)
Type: biochemical
Details: 5 μM ATP, 1.5 μM peptide substrate; value ranges
Description: The effectiveness of compounds of the present invention as ROCK inhibitors can be determined in a 30 μL assay containing 20 mM HEPES, pH 7.5, 20 mM MgCl2, 0.015% Brij-35, 4 mM DTT, 5 μM ATP and 1.5 μM peptide substrate (FITC-AHA-AKRRRLSSLRA-OH). Compounds were dissolved in DMSO so that the final concentration of DMSO was <2%, and the reaction was initiated with Rho kinase variants. After incubation, the reaction was terminated by the addition of EDTA and the phosphorylated and non-phosphorylated peptides separated using a LABCHIP® 3000 Reader (Caliper Life Sciences). […] Compounds were tested in dose-response format, and the inhibition of kinase activity was calculated at each concentration of compound. The inhibition data were fit using a curve-fitting program to determine the IC50; i.e., the concentration of compound required to inhibit 50% of kinase activity.
Representative Examples were tested in the ROCK2 assay described above and found having ROCK inhibitory activity.

Chain of ROCK2 (O75116 whole entry, species assumed): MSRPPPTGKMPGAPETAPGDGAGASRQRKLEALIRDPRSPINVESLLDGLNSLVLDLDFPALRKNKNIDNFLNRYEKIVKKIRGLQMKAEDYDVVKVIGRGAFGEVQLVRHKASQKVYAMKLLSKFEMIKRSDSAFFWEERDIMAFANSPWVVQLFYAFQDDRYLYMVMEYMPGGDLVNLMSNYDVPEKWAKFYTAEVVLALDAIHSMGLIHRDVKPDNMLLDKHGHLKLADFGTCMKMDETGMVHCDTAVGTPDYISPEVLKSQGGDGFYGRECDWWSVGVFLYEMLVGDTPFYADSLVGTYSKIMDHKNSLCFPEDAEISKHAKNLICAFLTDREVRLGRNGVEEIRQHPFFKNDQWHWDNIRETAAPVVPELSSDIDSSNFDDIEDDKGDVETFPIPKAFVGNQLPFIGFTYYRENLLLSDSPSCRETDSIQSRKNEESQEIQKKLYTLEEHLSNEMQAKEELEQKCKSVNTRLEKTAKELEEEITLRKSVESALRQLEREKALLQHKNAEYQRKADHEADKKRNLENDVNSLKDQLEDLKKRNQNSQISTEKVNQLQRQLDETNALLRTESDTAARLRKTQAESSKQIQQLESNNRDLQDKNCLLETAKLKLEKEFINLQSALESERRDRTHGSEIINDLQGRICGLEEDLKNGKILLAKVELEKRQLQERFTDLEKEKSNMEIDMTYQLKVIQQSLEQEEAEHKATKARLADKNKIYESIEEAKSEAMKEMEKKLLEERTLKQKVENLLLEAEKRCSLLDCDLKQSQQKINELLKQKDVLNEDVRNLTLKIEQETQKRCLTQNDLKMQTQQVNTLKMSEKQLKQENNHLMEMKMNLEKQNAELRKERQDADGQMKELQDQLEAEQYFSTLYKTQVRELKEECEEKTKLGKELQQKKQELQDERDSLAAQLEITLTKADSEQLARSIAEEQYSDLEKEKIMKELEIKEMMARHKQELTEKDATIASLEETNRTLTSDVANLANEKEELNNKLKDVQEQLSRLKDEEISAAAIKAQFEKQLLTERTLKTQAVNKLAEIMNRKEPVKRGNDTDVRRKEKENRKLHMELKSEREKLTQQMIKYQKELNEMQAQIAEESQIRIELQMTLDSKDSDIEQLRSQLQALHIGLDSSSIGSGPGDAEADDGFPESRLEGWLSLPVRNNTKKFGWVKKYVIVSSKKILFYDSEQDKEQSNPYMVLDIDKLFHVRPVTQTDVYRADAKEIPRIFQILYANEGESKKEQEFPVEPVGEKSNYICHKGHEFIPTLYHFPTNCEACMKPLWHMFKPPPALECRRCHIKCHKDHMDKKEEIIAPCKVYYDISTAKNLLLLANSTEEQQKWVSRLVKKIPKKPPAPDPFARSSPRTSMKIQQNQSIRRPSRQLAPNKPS

Structure (SMILES)	IC50 [nM]
COc1cccc(C(CO)N2CCN(c3ccc(-c4cn[nH]c4)c(C)c3)C2=O)c1 (single isomer, unassigned) [Example 165, 1-(2-hydroxy-1-(3-methoxy-phenyl)ethyl)-3-(3-methyl-4-(1H-pyrazol-4-yl)phenyl) imidazolidin-2-one]	2.1 to 20
COc1cccc(C(C)N2C(=O)N(c3ccc(-c4cn[nH]c4)cc3)CC2(C)C)c1 (single isomer, unassigned) [Example 145, 1-(4-(1H-pyrazol-4-yl)phenyl)-3-(1-(3-methoxy-phenyl)-ethyl)-4,4-dimethyl-imidazolidin-2-one]	2.1 to 20
COc1cc(CN2CCN(c3ccc(-c4cn[nH]c4)c(C#N)c3)C2=O)ccc1F [Example 279, 5-(3-(4-fluoro-3-methoxybenzyl)-2-oxoimidazolidin-1-yl)-2-(1H-pyrazol-4-yl)benzonitrile]	200 to 2000
COc1cc(F)cc(CN2C(=O)CN(c3ccc(-c4cn[nH]c4)cc3)C2=O)c1 [Example 107, 1-(4-(1H-pyrazol-4-yl)phenyl)-3-(3-fluoro-5-methoxy-benzyl)imidazolidine-2,4-dione]	2.1 to 20
COc1cc(CN2CCN(c3ccc(-c4cn[nH]c4)c(F)c3)C2=O)ccc1F [Example 434, 1-(4-fluoro-3-methoxybenzyl)-3-(3-fluoro-4-(1H-pyrazol-4-yl)phenyl)imidazolidin-2-one]	2.1 to 20
COc1cccc(CN2C(=O)N(c3ccc(-c4cn[nH]c4)cc3)C(=O)C2CO)c1 (stereo not drawn) [Example 121, 3-(4-(1H-Pyrazol-4-yl)phenyl)-5-(hydroxymethyl)-1-(3-methoxybenzyl)imidazolidine-2,4-dione]	200 to 2000
CCC1CN(c2ccc(-c3cn[nH]c3)cc2)C(=O)N1Cc1cccc(OCC2CC2)c1 (stereo not drawn) [Example 177, 1-(4-(1H-pyrazol-4-yl)phenyl)-3-(3-(cyclo-propyl-methoxy)-benzyl)-4-ethyl-imidazolidin-2-one]	20.1 to 200
CCc1nc(N2CCN(Cc3cc(F)cc(OC)c3)C2=O)ccc1-c1cn[nH]c1 [Example 168, 1-(6-ethyl-5-(1H-pyrazol-4-yl)pyridin-2-yl)-3-(3-fluoro-5-methoxy-benzyl) imidazolidin-2-one]	< 2
O=C1N(Cc2ccccc2)CCN1c1ccc(-c2cn[nH]c2)cc1 [Example 3, 1-(4-(1H-pyrazol-4-yl)phenyl)-3-benzylimidazolidin-2-one]	2.1 to 20
O=C(O)C1CN(c2ccc(-c3cn[nH]c3)cc2)C(=O)N1Cc1cccc(F)c1 (stereo not drawn) [Example 32, 1-(4-(1H-Pyrazol-4-yl)phenyl)-3-(3-fluorobenzyl)-2-oxoimidazolidine-4-carboxylic Acid]	200 to 2000
COc1cc(N2CCN(CCc3ccc(F)cc3)C2=O)ccc1-c1cn[nH]c1 [Example 8, 1-(4-Fluorophenethyl)-3-(3-methoxy-4-(1H-pyrazol-4-yl)phenyl)imidazolidin-2-one]	200 to 2000
COc1cccc(C(C)n2ccn(-c3ccc(-c4cn[nH]c4)cn3)c2=O)c1 (single isomer, unassigned) [Example 354, 1-(5-(1H-pyrazol-4-yl)pyridin-2-yl)-3-(1-(3-methoxyphenyl)ethyl)-1H-imidazol-2(3H)-one]	20.1 to 200
CNC(=O)C(c1cccc(OC)c1)N1CCN(c2ccc(-c3cn[nH]c3)cc2)C1=O (single isomer, unassigned) [Example 291, 2-(3-(4-(1H-pyrazol-4-yl)phenyl)-2-oxoimidazolidin-1-yl)-2-(3-methoxyphenyl)-N-methylacetamide]	20.1 to 200
COc1cccc([C@@H](C)N2CCN(c3ccc(-c4cn[nH]c4)c(OC)c3)C2=O)c1 [Example 13, (R)-1-(3-Methoxy-4-(1H-pyrazol-4-yl)phenyl)-3-(1-(3-methoxyphenyl)ethyl)imidazolidin-2-one]	< 2
CC1(C)CN(c2ccc(-c3cn[nH]c3)cc2)C(=O)N1Cc1cccc(OC(F)F)c1 [Example 142, 1-(4-(1H-pyrazol-4-yl)phenyl)-3-(3-(difluoro-methoxy)-benzyl)-4,4-dimethyl-imidazolidin-2-one]	20.1 to 200
COc1cccc(C(C)N2CCN(c3ccc(-c4cn[nH]c4)c(C)n3)C2=O)c1 (single isomer, unassigned) [Example 181, 1-(1-(3-methoxy-phenyl)-ethyl)-3-(6-methyl-5-(1H-pyrazol-4-yl)pyridin-2-yl)-imidazolidin-2-one]	2.1 to 20
COc1cc(N2CC(=O)N(Cc3ccccc3Cl)C2=O)ccc1-c1cn[nH]c1 [Example 104, 3-(2-chlorobenzyl)-1-(3-methoxy-4-(1H-pyrazol-4-yl)phenyl)imidazolidine-2,4-dione]	20.1 to 200
COc1cccc(CN2CCN(c3ccc(-c4ccncc4F)cc3)C2=O)c1 [Example 50, 1-(4-(3-fluoropyridin-4-yl)phenyl)-3-(3-methoxybenzyl)imidazolidin-2-one]	20.1 to 200

Structure (SMILES)	IC50 [nM]
CCNC(=O)C(c1cccc(OC)c1)N1CCN(c2ccc(-c3cn[nH]c3)cc2)C1=O (single isomer, unassigned) [Example 290, 2-(3-(4-(1H-Pyrazol-4-yl)phenyl)-2-oxoimidazolidin-1-yl)-N-ethyl-2-(3-methoxyphenyl)acetamide]	20.1 to 200
COc1cc(F)cc(Cn2ccn(-c3ccc(-c4cn[nH]c4)c(OC)c3)c2=O)c1 [Example 343, 1-(3-fluoro-5-methoxybenzyl)-3-(3-methoxy-4-(1H-pyrazol-4-yl)phenyl)-1H-imidazol-2(3H)-one]	2.1 to 20
COc1cc(F)cc(CN2CCN(c3ccc(-c4cn[nH]c4)c(C#N)c3)C2=O)c1 [Example 278, 5-(3-(3-fluoro-5-methoxybenzyl)-2-oxoimidazolidin-1-yl)-2-(1H-pyrazol-4-yl)benzonitrile]	20.1 to 200
COc1cccc(CN2CCN(c3ccc(-c4cn[nH]c4)c(C)n3)C2=O)c1 [Example 179, 1-(3-methoxy-benzyl)-3-(6-methyl-5-(1H-pyrazol-4-yl)pyridin-2-yl)-imidazolidin-2-one]	2.1 to 20
COc1cccc(Cn2ccn(-c3ccc(-c4cn[nH]c4)c(OC)c3)c2=O)c1 [Example 342, 1-(3-methoxy-4-(1H-pyrazol-4-yl)phenyl)-3-(3-methoxybenzyl)-1H-imidazol-2(3H)-one]	< 2
COc1cc(N2C(=O)CN(Cc3cccc(F)c3)C2=O)ccc1-c1cn[nH]c1 [Example 90, 1-(3-fluorobenzyl)-3-(3-methoxy-4-(1H-pyrazol-4-yl)phenyl)imidazolidine-2,4-dione]	20.1 to 200
O=C1N(Cc2ccccn2)CCN1c1ccc(-c2cn[nH]c2)cn1 [Example 243, 1-(5-(1H-pyrazol-4-yl)pyridin-2-yl)-3-(pyridin-2-ylmethyl)imidazolidin-2-one]	200 to 2000
CCc1cc(N2CC(C)(C)N(Cc3cc(F)cc(OC)c3)C2=O)ccc1-c1cn[nH]c1 [Example 147, 1-(3-ethyl-4-(1H-pyrazol-4-yl)-phenyl)-3-(3-fluoro-5-methoxy-benzyl)-4,4-dimethyl-imidazolidin-2-one]	2.1 to 20
Cc1nc(N2CCN(C(C)c3cccc(OCC4CC4)c3)C2=O)ccc1-c1cn[nH]c1 (single isomer, unassigned) [Example 204, 1-(1-(3-(cyclopropyl-methoxy)-phenyl)-ethyl)-3-(6-methyl-5-(1H-pyrazol-4-yl)pyridin-2-yl)-imidazolidin-2-one]	20.1 to 200
COc1cc(CN2CCN(c3ccc(-c4cn[nH]c4)cn3)C2=O)ccc1F [Example 429, 1-(5-(1H-pyrazol-4-yl)pyridin-2-yl)-3-(4-fluoro-3-methoxybenzyl)imidazolidin-2-one]	2.1 to 20
COc1cccc(C(C(=O)NCC(C)C)N2CCN(c3ccc(-c4cn[nH]c4)cc3)C2=O)c1 (single isomer, unassigned) [Example 294, 2-(3-(4-(1H-pyrazol-4-yl)phenyl)-2-oxoimidazolidin-1-yl)-N-isobutyl-2-(3-methoxyphenyl)acetamide]	2.1 to 20
O=c1n(Cc2cccc(OC(F)F)c2)ccn1-c1ccc(-c2cn[nH]c2)cc1 [Example 333, 1-(4-(1H-pyrazol-4-yl)phenyl)-3-(3-(difluoromethoxy)benzyl)-1H-imidazol-2(3H)-one]	2.1 to 20
COc1cc(C(C)n2ccn(-c3ccc(-c4cn[nH]c4)c(OC)n3)c2=O)ccc1F (single isomer, unassigned) [Example 389, 1-(1-(4-fluoro-3-methoxyphenyl)ethyl)-3-(6-methoxy-5-(1H-pyrazol-4-yl)pyridin-2-yl)-1H-imidazol-2(3H)-one]	< 2
O=c1n(Cc2cccnc2)ccn1-c1ccc(-c2cn[nH]c2)cc1 [Example 410, 1-(4-(1H-pyrazol-4-yl)phenyl)-3-(pyridin-3-ylmethyl)-1H-imidazol-2(3H)-one]	20.1 to 200
O=C1N(Cc2cccc(F)c2)CCN1c1ccc(-c2cnoc2)cc1 [Example 61, 1-(3-fluorobenzyl)-3-(4-(isoxazol-4-yl)phenyl)imidazolidin-2-one]	200 to 2000
COc1cc(F)cc(C(C)N2CCN(c3ccc(-c4cn[nH]c4)c(OC)n3)C2=O)c1 (single isomer, unassigned) [Example 228, 1-(1-(3-fluoro-5-methoxyphenyl)ethyl)-3-(6-methoxy-5-(1H-pyrazol-4-yl)pyridin-2-yl)imidazolidin-2-one]	< 2
O=C1N(Cc2cccc(F)c2)CCN1c1ccc(-c2cn[nH]c2)cc1 [Example 4, 1-(4-(1H-pyrazol-4-yl)phenyl)-3-(3-fluorobenzyl)imidazolidin-2-one]	2.1 to 20
COc1nc(-n2ccn(Cc3ccc(F)cc3C)c2=O)ccc1-c1cn[nH]c1 [Example 381, 1-(4-fluoro-2-methylbenzyl)-3-(6-methoxy-5-(1H-pyrazol-4-yl)pyridin-2-yl)-1H-imidazol-2(3H)-one]	2.1 to 20

— patent publication US10123993B2, “Cyclic ureas as inhibitors of rock” (BRISTOL-MYERS SQUIBB COMPANY, priority 2015, dated 2018)
